# Experimental data from patent publication US9540691B2, “Assays and methods for selecting a treatment regimen for a subject with depression” (THE GENERAL HOSPITAL CORPORATION, priority 2011, dated 2017).
# Like-named read-outs stand apart in the source and are kept apart here.
# Tested on: patients with major depressive disorder (MDD) resistant to treatment with SSRIs
# Text: Using the sequential parallel design […] For those randomly assigned to the placebo/placebo sequence, both responders and non-responders to placebo during the first phase (n=25) remain on placebo during the second phase. […] Data from the previous double-blind, placebo-controlled study (Trial 1) can be pooled into the instant study (Trial 2) to provide a more accurate estimate of the placebo effect size, with a weighted average from the two Phases 1 (one from Trial 1 and one from Trial 2) and two Phases 2 (one from Trial 1 and one from Trial 2).
# The primary efficacy measure can include the change in 17-item Hamilton Rating Scale for Depression (HAM-D-17) score. […] A remission is, for example, defined as a HAM-D-17 score less than 8 at endpoint. Secondary measures of efficacy can include change in CGI-severity, with “clinical response defined” as CGI-S of 1 or 2 at endpoint. Patients with a CGI-I score greater than 5 at any post baseline visit or a 50 percent or greater worsening of depressive symptoms from baseline to that visit are discontinued from the study. Subjects are also discontinued from the study with any emergence of suicidality, homicidality, mania, or psychosis. Additional exemplary instruments that can be administered according to the study schedule include the following: • (1) Structured Clinical Interview for DSM-IV: The SCID-I/P, administered by the clinician, proceeds by modules to diagnose the different Axis I disorders. Questions are asked exactly as written, and each is based on the individual criteria from DSM-IV. Answers are generally rated on a scale of 1-3 (1=doubtful, 2=probable, 3=definite), and, based on the number of positive answers, a diagnosis is determined by a clinician. While the entire SCID-UP is administered at screen, the mood module is administered at each follow up visit. • (2) The MGH Antidepressant Treatment History Questionnaire (MGH-ATR): The MGH-ATR provides specific criteria for the adequate dose and adequate length of a trial for it to be considered a failure, thus allowing clinicians to systematically collect data aimed at assessing the degree of treatment-resistance of the current major depressive episode. • (3) The 28-item Hamilton Depression Scale (HAM-D-28): This version allows scoring of the HAM-D-17, 21-, 25-, and 28-item scales. This instrument is completed by the clinician by using a structured interview and defined anchor points, and aims to quantify the degree of depression over the past 7 days. The HAM-D is the most widely studied instrument for depression, and its reliability and validity are high. • (4) Clinical Global Impressions-Severity and Improvement (CGI-S, CGI-I): These two instruments are scored 1-7 by the clinician based on assessment of the patient's clinical status. They measure, based on history and scores on other instruments: a) Depressive severity (CGI-S) and b) Clinical Improvement (CGI-I). […] Safety Measurements
# Data are entered and error-checked at each clinical site involved in the study. Study staff and subjects may have the option to enter self-evaluations into the system directly using DatStat Illume™. The process of data entry is supervised by the DCRP staff. Once the data set is entered and checked, analyses are conducted. Both a completer analysis of all patients finishing the trial and an intent-to-treat analysis examining all patients enrolled into the trial are used to define the severity of depression at endpoint. Examination of both study completers and all patients randomized can provide the broadest assessment of the effects of treatment in trials of such kind. The data from Trial 2 can be pooled with those from Trial 1 with the sequential parallel comparison design, to provide an estimate of the placebo response based on a larger sample size. […] Let p1, q1 be the response rates to the first administration of drug and placebo respectively and let p2, q2 be the responses rates to the second treatment.
# [1] = 7.5 mg/day adjunct to SSRI, Phase 1
# [2] = 7.5 mg/day adjunct to SSRI, Phase 2 (Phase 1 completers/non-responders only)
# [3] = 7.5 mg/day adjunct to SSRI, pooled Phases 1 and 2 (SPCD)
smiles,measurement,setting,value
"CN1c2c(nc(N)[nH]c2=O)NC[C@@H]1CNc1ccc(C(=O)N[C@@H](CCC(=O)O)C(=O)O)cc1 [6(S)-5-MTHF, 6(S)-5-methyltetrahydrofolate]",efficacy as an adjunct to the SSRIs (in words),7.5 mg/day,not effective
same,CGI-S Mean score reduction (SD),[1],−0.5 (0.9)
same,HDRS-17 % Remission,[1],11.1% (4)
same,HDRS-17 % Response,[1],19.8% (7)
same,HDRS-17 Mean score reduction (SD),[1],−4.3 (5.0)
same,QIDS-SR % Remission,[1],0.0% (0)
same,QIDS-SR % Responsive,[1],25.0% (9)
same,QIDS-SR Mean score reduction (SD),[1],−4.6 (5.1)
same,CGI-S Mean score reduction (SD),[2],−0.5 (0.7)
same,HDRS-17 % Remission,[2],14.2% (5)
same,HDRS-17 % Response,[2],17.1% (6)
same,HDRS-17 Mean score reduction (SD),[2],−3.1 (4.2)
same,QIDS-SR % Remission,[2],8.5% (3)
same,QIDS-SR % Responsive,[2],8.5% (3)
same,QIDS-SR Mean score reduction (SD),[2],4.8 (4.1)
same,CGI-S Mean score reduction,[3],−0.53
same,HDRS-17 Mean score reduction,[3],−3.70
same,QIDS-SR % Remission,[3],4.3%
same,QIDS-SR % Responsive,[3],19.8%
same,QIDS-SR Mean score reduction,[3],−0.25
same,increase in response and remission rate compared to placebo with SSRIs,"15 mg/day in second phase, drug/drug sequence",at least 2 fold
same,response and remission rate,"dose increased from 7.5 to 15 mg/day in second phase, drug/drug sequence, placebo with SSRIs 9%, p=0.1",24%
